# According to ChEMBL document CHEMBL3044664, “Synthesis of coumarin-based 1,3,4-oxadiazol-2ylthio-N-phenyl/benzothiazolyl acetamides as antimicrobial and antituberculosis agents” (2013):
# Tests used:
# Assay type in all cases: functional
# [1] = test system: Mycobacterium tuberculosis; experiment: Antitubercular activity against Mycobacterium tuberculosis H37Rv assessed as growth inhibition by BACTEC MGIT method
# Proteus vulgaris = experiment: Antibacterial activity against Proteus vulgaris MTCC 1771 assessed as growth inhibition by agar streak dilution method
# Pseudomonas aeruginosa = experiment: Antibacterial activity against Pseudomonas aeruginosa MTCC 741 assessed as growth inhibition by agar streak dilution method
# Aspergillus fumigatus = experiment: Antifungal activity against Aspergillus fumigatus MTCC 343 assessed as growth inhibition by agar streak dilution method
# Escherichia coli = experiment: Antibacterial activity against Escherichia coli MTCC 739 assessed as growth inhibition by agar streak dilution method
# [2] = test system: Mycobacterium tuberculosis; experiment: Antitubercular activity against Mycobacterium tuberculosis H37Rv assessed as growth inhibition at MIC by Lowenstein-Jensen method
# Aspergillus clavatus = experiment: Antifungal activity against Aspergillus clavatus MTCC 1323 assessed as growth inhibition by agar streak dilution method
# Staphylococcus aureus = experiment: Antibacterial activity against Staphylococcus aureus MTCC 96 assessed as growth inhibition by agar streak dilution method
# Candida albicans = experiment: Antifungal activity against Candida albicans MTCC 183 assessed as growth inhibition by agar streak dilution method
# Klebsiella pneumoniae = experiment: Antibacterial activity against Klebsiella pneumoniae MTCC 109 assessed as growth inhibition by agar streak dilution method
# Salmonella typhi = experiment: Antibacterial activity against Salmonella enterica subsp. enterica serovar Typhi MTCC 733 assessed as growth inhibition by agar streak dilution method
# [3] = test system: Mycobacterium tuberculosis; experiment: Antitubercular activity against Mycobacterium tuberculosis H37Rv assessed as growth inhibition by Lowenstein-Jensen method
# Aspergillus niger = experiment: Antifungal activity against Aspergillus niger MTCC 282 assessed as growth inhibition by agar streak dilution method
# Shigella flexneri = experiment: Antibacterial activity against Shigella flexneri MTCC 1457 assessed as growth inhibition by agar streak dilution method
# Bacillus cereus = experiment: Antibacterial activity against Bacillus cereus MTCC 430 assessed as growth inhibition by agar streak dilution method
# [4] = test system: Mycobacterium tuberculosis; experiment: Antitubercular activity against Mycobacterium tuberculosis H37Rv assessed as growth inhibition at MIC by BACTEC MGIT method
Compound,MIC [1] [µg/mL],MIC (Proteus vulgaris) [µg/mL],MIC (Pseudomonas aeruginosa) [µg/mL],MIC (Aspergillus fumigatus) [µg/mL],MIC (Escherichia coli) [µg/mL],growth inhibition (GI) [2] [%],MIC (Aspergillus clavatus) [µg/mL],MIC (Staphylococcus aureus) [µg/mL],MIC (Candida albicans) [µg/mL],MIC (Klebsiella pneumoniae) [µg/mL],MIC (Salmonella typhi) [µg/mL],MIC [3] [µg/mL],MIC (Aspergillus niger) [µg/mL],MIC (Shigella flexneri) [µg/mL],MIC (Bacillus cereus) [µg/mL],growth inhibition (GI) [4] [%]
O=C(CSc1nnc(-c2cc3ccccc3oc2=O)o1)Nc1ccccc1,> 6.25,> 100,> 100,> 100,100,95,> 100,> 100,100,> 100,> 100,500,> 100,> 100,100,–
O=C(CSc1nnc(-c2cc3ccccc3oc2=O)o1)Nc1ccc(Cl)cc1,> 6.25,100,100,25,25,96,100,50,50,100,100,100,25,50,25,–
O=C(CSc1nnc(-c2cc3ccccc3oc2=O)o1)Nc1ccc(Br)cc1,> 6.25,100,50,100,12.5,97,100,50,50,100,100,62.5,50,100,12.5,–
CC[C@@H](CO)NCCN[C@@H](CC)CO [ETHAMBUTOL],3.12,–,–,–,–,–,–,–,–,–,–,–,–,–,–,99
NNC(=O)c1ccncc1 [ISONIAZID],0.2,–,–,–,–,–,–,–,–,–,–,–,–,–,–,99
NC(=O)c1cnccn1 [PYRAZINAMIDE],6.25,–,–,–,–,–,–,–,–,–,–,–,–,–,–,99
CO[C@H]1/C=C/O[C@@]2(C)Oc3c(C)c(O)c4c(O)c(c(/C=N/N5CCN(C)CC5)c(O)c4c3C2=O)NC(=O)/C(C)=C\C=C\[C@H](C)[C@H](O)[C@@H](C)[C@@H](O)[C@@H](C)[C@H](OC(C)=O)[C@@H]1C [RIFAMPIN],0.25,–,–,–,–,–,–,–,–,–,–,–,–,–,–,99
